Results from PubChem BioAssay (NCI).
“And” between values parts separate entries of the source, which are not always exact repeats. Equal values may be shown once.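 Following 48 hours of exposure in 96-well plates, responses at five concentrations were used to interpolate endpoints linearly. Here, GI50 denotes the concentration required for 50% inhibition of growth. TGI: concentration producing complete growth inhibition.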 Where a SMILES comes first, the peptide text is derived from it. [ ]: non-standard residue; d: D form. The star is where a group is joined. Phe(4-NO2) = N[CH](Cc1ccc([N+](=O)[O-])cc1)C(=O)O; Boc = CC(C)(C)OC(=O)*

Tests used:
Assay in all cases: DTP human tumour cell line panel, 48 h
HCT-15 colon = system: HCT-15 colon
COLO 205 colon = system: COLO 205 colon
T-47D breast = system: T-47D breast
OVCAR-4 ovarian = system: OVCAR-4 ovarian
MALME-3M melanoma = system: MALME-3M melanoma
HL-60(TB) leukemia = system: HL-60(TB) leukemia
DU-145 prostate = system: DU-145 prostate
SF-268 CNS = system: SF-268 CNS
SK-MEL-5 melanoma = system: SK-MEL-5 melanoma
SR leukemia = system: SR leukemia

Compound	TGI (HCT-15 colon) [µM]	TGI (COLO 205 colon) [µM]	TGI (T-47D breast) [µM]	TGI (OVCAR-4 ovarian) [µM]	TGI (MALME-3M melanoma) [µM]	TGI (HL-60(TB) leukemia)	TGI (DU-145 prostate) [µM]	TGI (SF-268 CNS) [µM]	TGI (SK-MEL-5 melanoma) [µM]	TGI (SR leukemia) [µM]	GI50 (COLO 205 colon) [µM]	GI50 (MALME-3M melanoma) [µM]	GI50 (HL-60(TB) leukemia) [µM]
O=c1[nH]nc(-c2ccccc2)c2[nH]c3c(c12)Cc1ccccc1-3	> 100	> 34.4	> 100	> 100	> 41.6	7.48 µM	> 100	> 100	–	–	–	–	–
Cc1ccc(-n2nncc2[Si](C)(C)C)s1	> 100	> 100	> 100	> 100	> 100	–	> 100	> 100	> 100	–	–	–	–
Cc1nc2ccc(Br)cc2c(=O)n1-c1ccc(N)cc1	> 100	> 100	–	> 100	> 100	> 100 µM	> 100	> 100	> 100	> 100	–	–	–
CCOC(=O)c1c(N2CCCC2)[nH]c(=O)c(C(c2ccc(N(C)C)cc2)c2c(O)c(C(=O)OCC)c(N3CCCC3)[nH]c2=O)c1O	> 100	> 100	> 100	> 100	> 100	–	> 100	> 100	> 100	> 100	–	–	–
COc1ccc(/C=C2\CCCc3ccccc3C2=O)cc1	> 33.1	0.557	–	> 100	> 100	9.55 µM	1.74	5.53	16	> 32	–	–	–
Cc1cc(C)c2c(c1)C/C(=C\c1cccc(C)c1C(=O)O)C2=O	> 100	–	> 100	> 100	> 100	> 100 µM	> 100	> 100	> 100	> 100	–	–	–
O=C1CCCCC/C1=C\c1cccc(F)c1	> 100	> 100	> 100	–	> 100	> 100 µM	> 100	> 100	> 100	61.2	–	–	–
O=C1C=CC(=O)c2c(O)c(N3CCOCC3)c(Cl)c(O)c21	0.403	0.395	4.36	0.663	0.442	–	2.93	3.19	0.822	> 7.34	–	–	–
COc1c(C)c(C/C=C(\C)CCCC(C)CCCC(C)CCCC(C)C)c(OC)c2ccccc12 (stereo unspecified)	> 100	> 100	–	> 100	–	–	> 100	> 100	> 100	> 100	–	–	–
CCOc1ccc2nc3nc(=O)[nH]c(C)c3c(NC(C)(CO)CO)c2c1	> 100	> 100	> 100	> 100	> 100	> 100 µM	> 100	> 100	> 100	–	–	–	–
N/N=C(/N)SCCCCCCCCCCS/C(N)=N/N	27.5	27.7	35.4	–	49.4	39.4 µM	> 100	> 100	49	27.4	–	–	–
O=C1c2ccccc2C2(c3ccc(F)cc3)NCCN12 (stereo unspecified)	> 100	> 100	> 100	> 100	> 100	> 100 µM	> 100	> 100	> 100	–	–	–	–
O=C1C(N2CCN(CCOCCO)CC2)=C(Cl)C(=O)c2ncccc21	37.4	36.8	6.75	34.8	33.8	8.29 µM and 5.91 µM	> 100	44.5	30.6	–	19.3	19.3	2.24
Cn1c2ccccc2n2c3ncccc3c(=O)cc12	> 100	> 100	> 100	> 100	> 100	–	> 100	> 100	> 100	–	–	–	–
Oc1c(Cl)cc2cc1-c1cc(cc(Cl)c1O)CCc1c(cc(Cl)c(O)c1Cl)-c1cc(Cl)c(c(Cl)c1O)/C=C\2	17.4	16.4	19.2	24	–	> 50 µM	16.1	23.6	14.9	> 50	–	–	–
Cc1cc2c(c(C(=O)NCC(=O)O)c1)Oc1c(cc(C)cc1C(=O)NCC(=O)O)S2	> 100	> 100	> 100	> 100	> 100	–	> 100	> 100	–	> 100	–	–	–
CCOC(=O)CCC(NC(=O)C(Cc1ccc([N+](=O)[O-])cc1)NC(=O)OC(C)(C)C)C(=O)NC(CCC(=O)OCC)C(=O)OCC (stereo unspecified) (Boc-[Phe(4-NO2)]-Glu(OEt)-Glu(OEt)-OEt; configuration not given here)	> 100	57.1	–	–	35	44 µM	–	–	31.2	9.38	–	–	–
COc1cccc2c1OC1c3ccccc3OCC1(O)C2 (stereo unspecified)	> 100	> 100	> 100	> 100	> 100	–	> 100	> 100	> 100	–	–	–	–
Cc1ccc(S(=O)(=O)OCCC2CN(C(=O)OCc3ccccc3)C(C)(C)O2)cc1 (stereo unspecified)	32.5	> 100	–	> 100	43.3	30 µM	> 100	–	8.76	> 100	–	–	–
C=CC(C)(C)/C=C/c1ccc(O)cc1	> 100	> 100	95	> 100	> 100	> 100 µM	> 100	> 100	> 100	–	–	–	–
C/C(=C\Cc1ccc(F)cc1)CCCCCC/C(C)=C/Cc1ccc(F)cc1	34.1	37.6	–	34.2	–	–	27.8	37.2	27.8	57.2	–	–	–
Nc1ccc2c(=O)cc(-c3ccc(Br)s3)[nH]c2n1	> 100	> 22.1	> 100	> 100	> 100	–	> 100	> 100	11.3	> 51.1	–	–	–
Oc1ccc2ccccc2c1OCc1nnc(CCCCCCCCc2nnc(COc3c(O)ccc4ccccc34)n2Nc2ccccc2)n1Nc1ccccc1	77.7	1.28	> 100	> 100	56.2	–	> 70.1	> 100	2.37	–	–	–	–
